# Results from ChEMBL document CHEMBL2331103, “Synthesis of a novel series of 2-alkylthio substituted naphthoquinones as potent acyl-CoA: cholesterol acyltransferase (ACAT) inhibitors” (Eur J Med Chem, 2013).
# Target: T1, Sterol O-acyltransferase 1 (Homo sapiens, UniProt P35610)
# T1 sequence (P35610 whole entry): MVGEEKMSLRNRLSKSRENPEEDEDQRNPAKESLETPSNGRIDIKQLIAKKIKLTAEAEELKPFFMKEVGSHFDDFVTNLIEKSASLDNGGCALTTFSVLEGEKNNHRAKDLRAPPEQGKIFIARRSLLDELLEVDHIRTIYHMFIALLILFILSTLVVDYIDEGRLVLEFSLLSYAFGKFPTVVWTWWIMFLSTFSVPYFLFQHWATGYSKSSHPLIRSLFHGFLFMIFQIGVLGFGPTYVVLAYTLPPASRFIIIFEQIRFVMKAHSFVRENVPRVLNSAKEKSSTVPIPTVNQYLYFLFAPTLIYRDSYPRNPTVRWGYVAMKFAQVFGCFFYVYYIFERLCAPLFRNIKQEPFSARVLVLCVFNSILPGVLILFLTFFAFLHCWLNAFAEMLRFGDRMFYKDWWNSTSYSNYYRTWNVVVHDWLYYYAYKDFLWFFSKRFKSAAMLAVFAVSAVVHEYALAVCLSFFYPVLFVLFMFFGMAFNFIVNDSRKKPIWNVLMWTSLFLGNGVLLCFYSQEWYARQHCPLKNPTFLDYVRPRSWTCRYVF
# Assay: Inhibition of human macrophage ACAT expressed in human HepG2 cells using [14C]oleoyl-CoA as substrate incubated for 20 mins prior to substrate addition measured after 25 mins by liquid scintillation counting analysis
# Format: cell-based
row,IC50 [µM],SMILES
1,> 100,COc1ccc(OC)c2c1C(=O)C=C([S+](C)[O-])C2=O (stereo not given)
2,5.8,CCCCCCCCCCCCCCCS(=O)(=O)C1=CC(=O)c2c(OC)ccc(OC)c2C1=O
3,8.19,CCCCCSC1=CC(=O)c2ccccc2C1=O
4,3.7,CC(C)CNC(=O)/C=C/C=C/CCCC/C=C/c1ccc2c(c1)OCO2 [RETROFRACTAMIDE B]
5,5.47,CCCCCCCCC[S+]([O-])C1=CC(=O)c2ccccc2C1=O (stereo not given)
6,5.66,C[S+]([O-])C1=CC(=O)c2ccccc2C1=O (stereo not given)
7,3.4,CCCCCCCCCCCS(=O)(=O)C1=CC(=O)c2c(OC)ccc(OC)c2C1=O
8,> 100,COc1ccc(OC)c2c1C(=O)C=C(S(C)(=O)=O)C2=O
9,56.6,CCCCCCCCCCCCCCC[S+]([O-])C1=CC(=O)c2ccccc2C1=O (stereo not given)
10,4.13,CCCCCCCCCCCCCCCSC1=CC(=O)c2ccccc2C1=O
11,2.4,CCCCCCCCCCCC[S+]([O-])C1=CC(=O)c2c(OC)ccc(OC)c2C1=O (stereo not given)
12,5.08,CCCSC1=CC(=O)c2ccccc2C1=O
13,1.63,CCCCCCCCCSC1=CC(=O)c2ccccc2C1=O
14,1.1,CCCCCCCCCCC[S+]([O-])C1=CC(=O)c2c(OC)ccc(OC)c2C1=O (stereo not given)
15,6,CCCCCCCCSC1=CC(=O)c2ccccc2C1=O
16,8.67,CCCCCCCCCCCSC1=CC(=O)c2ccccc2C1=O
17,7.51,CCSC1=CC(=O)c2ccccc2C1=O
18,8.4,CCCCCCCCCC[S+]([O-])C1=CC(=O)c2c(OC)ccc(OC)c2C1=O (stereo not given)
19,1.66,CCCCCCCCCCCCSC1=CC(=O)c2ccccc2C1=O
20,> 100,CCCCCCCCCCCCCCCCCC[S+]([O-])C1=CC(=O)c2c(OC)ccc(OC)c2C1=O (stereo not given)
21,> 100,CCS(=O)(=O)C1=CC(=O)c2c(OC)ccc(OC)c2C1=O
22,7.87,CCCCSC1=CC(=O)c2ccccc2C1=O
23,1.45,CCCCCCCCCCCCCCCCCCSC1=CC(=O)c2ccccc2C1=O
24,2.82,CSC1=CC(=O)c2ccccc2C1=O
25,> 100,CCCS(=O)(=O)C1=CC(=O)c2c(OC)ccc(OC)c2C1=O
